Values quoted from earlier work as cited in US20220354953A1, “PHOTODYNAMIC THERAPY COMPOSITIONS AND METHODS OF TREATMENT THEREIN” (Pinnacle Biologics, Inc., priority 2021, published 2022).

porfimer sodium
time stable when reconstituted with saline: 24 h
